# Counter-ions that a name gives are not always drawn.
# Test system: NCI-H292 lung cancer cells
# Test: FDA drug screening, complete media vs cholesterol-free media with simvastatin (TABLE 2)
# Format: cell-based, human
# Settings: not given
Structure (SMILES),Cholesterol-free media + simvastatin (0.04 μM),Complete Media,Difference
[O-][n+]1ccccc1[S-].[O-][n+]1ccccc1[S-].[Zn+2] [Zinc Pyrithione],0.004251,−0.04835,−0.05

# Same assay, conditions: NCI-H292 cells, FDA drug library screen, cholesterol-free media with simvastatin 0.04 μM
row,Structure (SMILES),Cholesterol-free media + simvastatin (0.04 μM)
1,O=C[C@H](O)[C@@H](O)[C@H](O)CO [Xylose],1.188
2,COc1cc(C(=O)NS(=O)(=O)c2ccccc2C)ccc1Cc1cn(C)c2ccc(NC(=O)OC3CCCC3)cc12 [Zafirlukast],1.598
3,O=P(O)(O)C(O)(Cn1ccnc1)P(=O)(O)O [Zoledronic acid (monohydrate)],0.7262

# Same assay, conditions: NCI-H292 cells, FDA drug library screen, complete media
row,Structure (SMILES),Complete Media
1,O=C[C@H](O)[C@@H](O)[C@H](O)CO [Xylose],1.083
2,COc1cc(C(=O)NS(=O)(=O)c2ccccc2C)ccc1Cc1cn(C)c2ccc(NC(=O)OC3CCCC3)cc12 [Zafirlukast],1.505
3,O=P(O)(O)C(O)(Cn1ccnc1)P(=O)(O)O [Zoledronic acid (monohydrate)],0.8945

# Same assay, conditions: NCI-H292 cells, FDA library drug in cholesterol-free media with simvastatin 0.04 μM
row,Structure (SMILES),Cholesterol-free media + simvastatin (0.04 μM)
1,Cc1ccc(Sc2ccccc2N2CCNCC2)c(C)c1 [Vortioxetine (hydrobromide)],1.363
2,Cc1ccc(Sc2ccccc2N2CCNCC2)c(C)c1 [Vortioxetine],1.222
3,CC(C)n1nccc1-c1ncccc1COc1cccc(O)c1C=O [Voxelotor],1.853
4,Cc1cc(C(C)(C)C)cc(C)c1CC1=NCCN1 [Xylometazoline (hydrochloride)],1.159
5,CC(C(=O)O)c1ccc2c(c1)CC(=O)c1ccccc1S2 (stereo not drawn) [Zaltoprofen],1.283
6,Cc1cn([C@H]2C[C@H](N=[N+]=[N-])[C@@H](CO)O2)c(=O)[nH]c1=O [Zidovudine],1.856

# Same assay, conditions: NCI-H292 cells, FDA library drug in complete media
row,Structure (SMILES),Complete Media
1,Cc1ccc(Sc2ccccc2N2CCNCC2)c(C)c1 [Vortioxetine (hydrobromide)],1.083
2,Cc1ccc(Sc2ccccc2N2CCNCC2)c(C)c1 [Vortioxetine],0.843
3,CC(C)n1nccc1-c1ncccc1COc1cccc(O)c1C=O [Voxelotor],1.475
4,Cc1cc(C(C)(C)C)cc(C)c1CC1=NCCN1 [Xylometazoline (hydrochloride)],0.7803
5,CC(C(=O)O)c1ccc2c(c1)CC(=O)c1ccccc1S2 (stereo not drawn) [Zaltoprofen],0.7256
6,Cc1cn([C@H]2C[C@H](N=[N+]=[N-])[C@@H](CO)O2)c(=O)[nH]c1=O [Zidovudine],1.268

# Same assay, conditions: NCI-H292 cells, cholesterol-free media with simvastatin 0.04 μM; FDA drug library screen (TABLE 2)
row,Structure (SMILES),Cholesterol-free media + simvastatin (0.04 μM)
1,CCOC(=O)N[C@@H]1CC[C@@H]2[C@@H](C1)C[C@H]1C(=O)O[C@H](C)[C@H]1[C@H]2/C=C/c1ccc(-c2cccc(F)c2)cn1 [Vorapaxar],1.048

# Same assay, conditions: NCI-H292 cells, complete media; FDA drug library screen (TABLE 2)
row,Structure (SMILES),Complete Media
1,CCOC(=O)N[C@@H]1CC[C@@H]2[C@@H](C1)C[C@H]1C(=O)O[C@H](C)[C@H]1[C@H]2/C=C/c1ccc(-c2cccc(F)c2)cn1 [Vorapaxar],1.005

# Same assay, conditions: complete media minus cholesterol-free media + simvastatin (0.04 μM); >0 enhanced anti-cancer activity, about 0 neutral, <0 antagonist
row,Structure (SMILES),Difference
1,CCOC(=O)N[C@@H]1CC[C@@H]2[C@@H](C1)C[C@H]1C(=O)O[C@H](C)[C@H]1[C@H]2/C=C/c1ccc(-c2cccc(F)c2)cn1 [Vorapaxar],−0.04

# Same assay, conditions: complete media minus cholesterol-free media + simvastatin; >0 enhanced anti-cancer activity, about 0 neutral, <0 antagonist
row,Structure (SMILES),Difference
1,O=P(O)(O)C(O)(Cn1ccnc1)P(=O)(O)O [Zoledronic acid (monohydrate)],0.17

# Same assay, conditions: complete media vs cholesterol-free media + simvastatin (0.04 μM); >0 enhanced anti-cancer activity, about 0 neutral, <0 antagonist
row,Structure (SMILES),Difference
1,Cc1ccc(Sc2ccccc2N2CCNCC2)c(C)c1 [Vortioxetine (hydrobromide)],−0.28
2,Cc1ccc(Sc2ccccc2N2CCNCC2)c(C)c1 [Vortioxetine],−0.38
3,CC(C)n1nccc1-c1ncccc1COc1cccc(O)c1C=O [Voxelotor],−0.38
4,O=C[C@H](O)[C@@H](O)[C@H](O)CO [Xylose],−0.11
5,COc1cc(C(=O)NS(=O)(=O)c2ccccc2C)ccc1Cc1cn(C)c2ccc(NC(=O)OC3CCCC3)cc12 [Zafirlukast],−0.09
6,CC(C(=O)O)c1ccc2c(c1)CC(=O)c1ccccc1S2 (stereo not drawn) [Zaltoprofen],−0.56
7,Cc1cn([C@H]2C[C@H](N=[N+]=[N-])[C@@H](CO)O2)c(=O)[nH]c1=O [Zidovudine],−0.59

# Same assay, conditions: complete media vs cholesterol-free media + simvastatin (0.04 μM); […]
row,Structure (SMILES),Difference
1,Cc1cc(C(C)(C)C)cc(C)c1CC1=NCCN1 [Xylometazoline (hydrochloride)],−0.38

# Test system: NCI-H292 lung cancer cells
# Test: FDA drug screening, complete media vs cholesterol-free media without statin (TABLE 1)
# Format: cell-based, human
# Settings: not given
Structure (SMILES),Cholesterol-free,Complete,Difference
[O-][n+]1ccccc1[S-].[O-][n+]1ccccc1[S-].[Zn+2] [Zinc Pyrithione],0.0139,0.007475,−0.01

# Same assay, conditions: Complete minus Cholesterol-free; >0 enhanced anti-cancer activity, about 0 neutral, <0 antagonist
row,Structure (SMILES),Difference
1,CCOC(=O)N[C@@H]1CC[C@@H]2[C@@H](C1)C[C@H]1C(=O)O[C@H](C)[C@H]1[C@H]2/C=C/c1ccc(-c2cccc(F)c2)cn1 [Vorapaxar],−0.20
2,Cc1ccc(Sc2ccccc2N2CCNCC2)c(C)c1 [Vortioxetine (hydrobromide)],−0.30
3,COc1cc(C(=O)NS(=O)(=O)c2ccccc2C)ccc1Cc1cn(C)c2ccc(NC(=O)OC3CCCC3)cc12 [Zafirlukast],0.05
4,Cc1cn([C@H]2C[C@H](N=[N+]=[N-])[C@@H](CO)O2)c(=O)[nH]c1=O [Zidovudine],−0.01
5,O=P(O)(O)C(O)(Cn1ccnc1)P(=O)(O)O [Zoledronic acid (monohydrate)],−0.23

# Same assay, conditions: Complete minus Cholesterol-free; […]
row,Structure (SMILES),Difference
1,Cc1cc(C(C)(C)C)cc(C)c1CC1=NCCN1 [Xylometazoline (hydrochloride)],−0.59

# Same assay, conditions: Complete minus Cholesterol-free; greater than 0 enhanced anti-cancer activity, about 0 neutral, below 0 antagonist
row,Structure (SMILES),Difference
1,CC(C(=O)O)c1ccc2c(c1)CC(=O)c1ccccc1S2 (stereo not drawn) [Zaltoprofen],−0.13

# Same assay, conditions: NCI-H292 cells in cholesterol-free media without statin
row,Structure (SMILES),Cholesterol-free
1,Cc1cc(C(C)(C)C)cc(C)c1CC1=NCCN1 [Xylometazoline (hydrochloride)],1.406

# Same assay, conditions: NCI-H292 cells in complete media
row,Structure (SMILES),Complete
1,Cc1cc(C(C)(C)C)cc(C)c1CC1=NCCN1 [Xylometazoline (hydrochloride)],0.8153

# Same assay, conditions: NCI-H292 cells, FDA drug library screen, cholesterol-free media without statin
row,Structure (SMILES),Cholesterol-free
1,CC(C(=O)O)c1ccc2c(c1)CC(=O)c1ccccc1S2 (stereo not drawn) [Zaltoprofen],1.151

# Same assay, conditions: NCI-H292 cells, FDA drug library screen, complete media
row,Structure (SMILES),Complete
1,CC(C(=O)O)c1ccc2c(c1)CC(=O)c1ccccc1S2 (stereo not drawn) [Zaltoprofen],1.025

# Same assay, conditions: NCI-H292 cells, cholesterol-free media without statin
row,Structure (SMILES),Cholesterol-free
1,CCOC(=O)N[C@@H]1CC[C@@H]2[C@@H](C1)C[C@H]1C(=O)O[C@H](C)[C@H]1[C@H]2/C=C/c1ccc(-c2cccc(F)c2)cn1 [Vorapaxar],1.186
2,Cc1ccc(Sc2ccccc2N2CCNCC2)c(C)c1 [Vortioxetine (hydrobromide)],0.7215
3,CC(C)n1nccc1-c1ncccc1COc1cccc(O)c1C=O [Voxelotor],1.146
4,O=C[C@H](O)[C@@H](O)[C@H](O)CO [Xylose],1.238
5,O=P(O)(O)C(O)(Cn1ccnc1)P(=O)(O)O [Zoledronic acid (monohydrate)],1.033

# Same assay, conditions: NCI-H292 cells, cholesterol-free media without statin, FDA drug library screen
row,Structure (SMILES),Cholesterol-free
1,Cc1ccc(Sc2ccccc2N2CCNCC2)c(C)c1 [Vortioxetine],0.5855
2,COc1cc(C(=O)NS(=O)(=O)c2ccccc2C)ccc1Cc1cn(C)c2ccc(NC(=O)OC3CCCC3)cc12 [Zafirlukast],0.8473
3,Cc1cn([C@H]2C[C@H](N=[N+]=[N-])[C@@H](CO)O2)c(=O)[nH]c1=O [Zidovudine],1.211

# Same assay, conditions: NCI-H292 cells, complete media
row,Structure (SMILES),Complete
1,CCOC(=O)N[C@@H]1CC[C@@H]2[C@@H](C1)C[C@H]1C(=O)O[C@H](C)[C@H]1[C@H]2/C=C/c1ccc(-c2cccc(F)c2)cn1 [Vorapaxar],0.984
2,Cc1ccc(Sc2ccccc2N2CCNCC2)c(C)c1 [Vortioxetine (hydrobromide)],0.4184
3,CC(C)n1nccc1-c1ncccc1COc1cccc(O)c1C=O [Voxelotor],0.7013
4,O=C[C@H](O)[C@@H](O)[C@H](O)CO [Xylose],0.9044
5,O=P(O)(O)C(O)(Cn1ccnc1)P(=O)(O)O [Zoledronic acid (monohydrate)],0.8069

# Same assay, conditions: NCI-H292 cells, complete media, FDA drug library screen
row,Structure (SMILES),Complete
1,Cc1ccc(Sc2ccccc2N2CCNCC2)c(C)c1 [Vortioxetine],0.993
2,COc1cc(C(=O)NS(=O)(=O)c2ccccc2C)ccc1Cc1cn(C)c2ccc(NC(=O)OC3CCCC3)cc12 [Zafirlukast],0.9001
3,Cc1cn([C@H]2C[C@H](N=[N+]=[N-])[C@@H](CO)O2)c(=O)[nH]c1=O [Zidovudine],1.205

# Same assay, conditions: complete vs cholesterol-free media; >0 enhanced anti-cancer activity, about 0 neutral, <0 antagonist
row,Structure (SMILES),Difference
1,Cc1ccc(Sc2ccccc2N2CCNCC2)c(C)c1 [Vortioxetine],0.41

# Same assay, conditions: complete vs cholesterol-free media; greater than 0 enhanced anti-cancer activity, about 0 neutral, below 0 antagonists
row,Structure (SMILES),Difference
1,CC(C)n1nccc1-c1ncccc1COc1cccc(O)c1C=O [Voxelotor],−0.44
2,O=C[C@H](O)[C@@H](O)[C@H](O)CO [Xylose],−0.33

# Source: US20250144067A1, “PERSONALIZED STARVATION THERAPY FOR CANCER” (Faeth Therapeutics, Inc., priority 2021, published 2025)
